Measurements reported in patent US20230065745A1, “PIPERIDINE-2,6-DIONE DERIVATIVES WHICH BIND TO CEREBLON, AND METHODS OF USE THEREOF” (Captor Therapeutics S.A., priority 2019, published 2023).

What was measured:
CK1α = CK1α degradation assay, Kelly cell line (Western blot densitometry); format: cell-based; conditions: 24 h
Method: Cells were seeded on 6-well plates, and the compounds to be tested were added at the desired concentration range. […] After 24 h incubation (37° C., 5% CO2), cells were washed and cell lysates were prepared using RIPA lysis buffer. The amount of protein was determined via BCA assay, and the appropriate quantity was then loaded on the precast gel for the protein separation. After primary and secondary Ab staining, the membranes were washed and signals developed. The densitometry analysis was implemented to obtain the numeric values used later in the protein level evaluation process.
(§1) The treatment with all compounds was carried out for 24 h.
(§2) Densitometry values are normalized to the loading control ((3-ACTIN) and presented as % of DMSO control, using the following labels: […]

IKZF1 = IKZF1 degradation assay, H929 cell line (Western blot densitometry); format: cell-based; conditions: for % of IKZF1 protein reduction, based on densitometry values: 24 h
Method: Cells were seeded on 6- or 12-well plates, and the compounds to be tested were added at the desired concentration range. […] After 6 or 24 h incubation (3TC, 5% CO2), cells were harvested, washed and cell lysates were prepared using RIPA lysis buffer. The amount of protein was determined via BCA assay, and the appropriate quantity was then loaded on the precast gel for the protein separation. After primary and secondary Ab staining, the membranes were washed and signals developed. The densitometry analysis was implemented to obtain the numeric values used later in the protein level evaluation process. […] The treatment with all compounds was carried out for 24 h.

IKZF3 = IKZF3 degradation assay, H929 cell line (Western blot densitometry); format: cell-based; conditions: 24 h
Method: Cells were seeded on 6- or 12-well plates, and the compounds to be tested were added at the desired concentration range. […] After 24 h incubation (3TC, 5% CO2), cells were harvested, washed and cell lysates were prepared using RIPA lysis buffer. The amount of protein was determined via BCA assay, and the appropriate quantity was then loaded on the precast gel for the protein separation. After primary and secondary Ab staining, the membranes were washed and signals developed. The densitometry analysis was implemented to obtain the numeric values used later in the protein level evaluation process.
as §1, §2

[1] = target: CRBN-DDB1 protein complex (Homo sapiens, UniProt Q96SW2); assay: Fluorescence Polarization (FP) assay, displacement of Cy5-labelled thalidomide; conditions: 25 nM CRBN-DDB1, 5 nM Cy5-labelled thalidomide, read-out: CRBN binding Ki
CRBN-DDB1 protein complex, sequence (Q96SW2 whole entry): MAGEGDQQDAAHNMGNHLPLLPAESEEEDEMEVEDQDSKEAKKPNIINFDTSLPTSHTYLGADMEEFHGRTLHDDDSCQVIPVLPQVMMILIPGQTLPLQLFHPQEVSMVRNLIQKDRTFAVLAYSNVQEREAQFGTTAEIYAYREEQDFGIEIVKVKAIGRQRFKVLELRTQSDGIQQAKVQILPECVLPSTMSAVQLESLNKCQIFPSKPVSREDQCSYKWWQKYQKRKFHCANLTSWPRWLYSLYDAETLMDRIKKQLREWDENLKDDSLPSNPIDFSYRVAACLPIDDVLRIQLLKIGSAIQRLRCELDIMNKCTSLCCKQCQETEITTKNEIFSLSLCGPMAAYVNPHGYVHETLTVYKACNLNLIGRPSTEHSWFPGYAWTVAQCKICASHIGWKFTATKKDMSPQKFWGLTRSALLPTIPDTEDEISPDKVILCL
CRBN-DDB1 protein complex, sequence (Q16531 whole entry partner): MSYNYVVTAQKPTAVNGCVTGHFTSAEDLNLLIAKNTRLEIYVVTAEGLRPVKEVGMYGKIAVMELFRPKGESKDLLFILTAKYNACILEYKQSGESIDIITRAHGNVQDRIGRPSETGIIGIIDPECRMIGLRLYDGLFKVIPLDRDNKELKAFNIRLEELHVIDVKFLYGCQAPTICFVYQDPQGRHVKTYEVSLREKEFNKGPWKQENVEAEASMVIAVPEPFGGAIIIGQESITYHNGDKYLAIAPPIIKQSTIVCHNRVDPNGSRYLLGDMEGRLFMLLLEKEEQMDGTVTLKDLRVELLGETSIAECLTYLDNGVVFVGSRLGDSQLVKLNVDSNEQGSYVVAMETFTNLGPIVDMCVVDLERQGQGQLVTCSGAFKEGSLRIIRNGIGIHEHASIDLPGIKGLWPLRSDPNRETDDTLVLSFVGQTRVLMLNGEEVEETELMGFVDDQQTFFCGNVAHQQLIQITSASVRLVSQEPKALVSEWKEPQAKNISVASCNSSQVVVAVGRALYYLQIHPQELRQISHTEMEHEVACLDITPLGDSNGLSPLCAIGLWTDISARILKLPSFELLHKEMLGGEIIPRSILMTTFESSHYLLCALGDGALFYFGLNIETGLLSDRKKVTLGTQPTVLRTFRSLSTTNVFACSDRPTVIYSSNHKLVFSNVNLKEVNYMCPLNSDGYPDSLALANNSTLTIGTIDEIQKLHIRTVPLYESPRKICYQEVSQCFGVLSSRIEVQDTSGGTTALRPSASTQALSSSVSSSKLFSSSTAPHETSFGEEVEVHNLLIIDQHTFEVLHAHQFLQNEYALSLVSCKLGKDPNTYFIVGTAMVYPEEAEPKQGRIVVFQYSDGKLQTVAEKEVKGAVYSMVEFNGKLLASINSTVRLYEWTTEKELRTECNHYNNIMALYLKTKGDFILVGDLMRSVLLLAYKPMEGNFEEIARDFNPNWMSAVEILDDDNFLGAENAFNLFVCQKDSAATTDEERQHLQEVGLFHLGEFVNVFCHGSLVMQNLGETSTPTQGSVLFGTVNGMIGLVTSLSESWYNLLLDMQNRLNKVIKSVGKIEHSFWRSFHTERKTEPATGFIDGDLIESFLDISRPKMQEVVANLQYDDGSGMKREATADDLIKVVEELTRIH
Method: CRBN-DDB1 protein complex was mixed with Cy5-labelled thalidomide and a compound to be tested (the “test compound”). […] The test solution was added to a 384-well assay plate.
The plate was spun-down (1 min, 1000 rpm, 22° C.) and then shaken using a VibroTurbulator for 10 min at room temperature (20-25° C.), with the frequency set to level 3. The assay plate with protein and the tracer was incubated for 60 min at room temperature (20-25° C.) prior to read-out with a plate reader.
The FP experiment was carried out with various concentrations of the test compounds in order to measure Ki values.

| Ki [1] [µM] | SMILES | % of CK1α protein reduction, based on densitometry values (CK1α; 1 μM) | % of CK1α protein reduction, based on densitometry values (CK1α; 10 μM) | % of CK1α protein reduction, based on densitometry values (CK1α; 20 μM) | CK1α degradation (in words) (CK1α) | % of IKZF1 protein reduction, based on densitometry values (IKZF1; 1 μM) | % of IKZF1 protein reduction, based on densitometry values (IKZF1; 10 μM) | % of IKZF3 protein reduction, based on densitometry values (IKZF3; 1 μM) | % of IKZF3 protein reduction, based on densitometry values (IKZF3; 10 μM) | % of IKZF1 protein reduction, IKZF 1 (24 H, 20 μM) (IKZF1) |
| --- | --- | --- | --- | --- | --- | --- | --- | --- | --- | --- |
| < 5 | CC(C)(C)OC(=O)Nc1ncc(C(=O)NC2CCC(=O)NC2=O)s1 (stereo not drawn) [Compound 71, tert-butyl (5-((2,6-dioxopiperidin-3-yl)carbamoyl)thiazol-2-yl)carbamate] |  |  |  |  |  |  |  |  | ≤25% (≤25% for 0-25% of IKZF1 protein reduction) |
| 10 to 50 | CC(C)(C)c1ncc(C(=O)NC2CCC(=O)NC2=O)s1 (stereo not drawn) [Compound 73, 2-(tert-butyl)-N-(2,6-dioxopiperidin-3-yl)thiazole-5-carboxamide] |  |  |  |  |  |  |  |  | ≤25% (≤25% for 0-25% of IKZF1 protein reduction) |
| 10 to 50 | O=C1CCC(NC(=O)c2cnc(CNC(=O)OCc3ccccc3)s2)C(=O)N1 (stereo not drawn) [Compound 74, benzyl ((5-((2,6-dioxopiperidin-3-yl)carbamoyl)thiazol-2-yl)methyl)carbamate] |  |  |  |  |  |  |  |  | ≤25% (≤25% for 0-25% of IKZF1 protein reduction) |
| 10 to 50 | COc1ncc(C(=O)NC2CCC(=O)NC2=O)s1 (stereo not drawn) [Compound 75, N-(2,6-dioxopiperidin-3-yl)-2-methoxythiazole-5-carboxamide] |  |  |  |  |  |  |  |  | ≤25% (≤25% for 0-25% of IKZF1 protein reduction) |
| 10 to 50 | CSc1ncc(C(=O)NC2CCC(=O)NC2=O)s1 (stereo not drawn) [Compound 76, N-(2,6-dioxopiperidin-3-yl)-2-(methylthio)thiazole-5-carboxamide] |  |  |  |  |  |  |  |  | ≤25% (≤25% for 0-25% of IKZF1 protein reduction) |
| < 5 | O=C1CCC(NC(=O)c2sc(Cl)c3cccnc23)C(=O)N1 (stereo not drawn) [Compound 106, 5-chloro-N-(2,6-dioxopiperidin-3-yl)thieno[3,4-b]pyridine-7-carboxamide] |  |  |  |  | ≤25% (≤25% for 0-25% of IKZF1 protein reduction) | ≤25% (≤25% for 0-25% of IKZF1 protein reduction) | ≤25% (≤25% for 0-25% of IKZF3 protein reduction) | ≤25% (≤25% for 0-25% of IKZF3 protein reduction) | ≤25% (≤25% for 0-25% of IKZF1 protein reduction) |
| < 5 | O=C1CCC(NC(=O)c2scc3cccnc23)C(=O)N1 (stereo not drawn) [Compound 107, N-(2,6-dioxopiperidin-3-yl)thieno[3,4-b]pyridine-7-carboxamide] |  |  |  |  | ≤25% (≤25% for 0-25% of IKZF1 protein reduction) | ≤25% (≤25% for 0-25% of IKZF1 protein reduction) | ≤25% (≤25% for 0-25% of IKZF3 protein reduction) | ≤25% (≤25% for 0-25% of IKZF3 protein reduction) |  |
| < 5 | COc1ccsc1C(=O)NC1CCC(=O)NC1=O (stereo not drawn) [Compound 108, N-(2,6-dioxopiperidin-3-yl)-3-methoxythiophene-2-carboxamide] |  |  | >25% (>25% for 26-74% of CK1α protein reduction) |  | ≤25% (≤25% for 0-25% of IKZF1 protein reduction) | ≤25% (≤25% for 0-25% of IKZF1 protein reduction) | ≤25% (≤25% for 0-25% of IKZF3 protein reduction) | ≤25% (≤25% for 0-25% of IKZF3 protein reduction) | ≤25% (≤25% for 0-25% of IKZF1 protein reduction) |
| 10 to 50 | COCc1ncc(C(=O)NC2CCC(=O)NC2=O)s1 (stereo not drawn) [Compound 111, N-(2,6-dioxopiperidin-3-yl)-2-(methoxymethyl)thiazole-5-carboxamide] |  |  |  |  | ≤25% (≤25% for 0-25% of IKZF1 protein reduction) | ≤25% (≤25% for 0-25% of IKZF1 protein reduction) | ≤25% (≤25% for 0-25% of IKZF3 protein reduction) | ≤25% (≤25% for 0-25% of IKZF3 protein reduction) | ≤25% (≤25% for 0-25% of IKZF1 protein reduction) |

The next lines start with the compound.

| SMILES | Ki [1] [µM] | % of CK1α protein reduction, based on densitometry values (CK1α; 1 μM) | % of CK1α protein reduction, based on densitometry values (CK1α; 10 μM) | % of CK1α protein reduction, based on densitometry values (CK1α; 20 μM) | CK1α degradation (in words) (CK1α) | % of IKZF1 protein reduction, based on densitometry values (IKZF1; 1 μM) | % of IKZF1 protein reduction, based on densitometry values (IKZF1; 10 μM) | % of IKZF3 protein reduction, based on densitometry values (IKZF3; 1 μM) | % of IKZF3 protein reduction, based on densitometry values (IKZF3; 10 μM) | % of IKZF1 protein reduction, IKZF 1 (24 H, 20 μM) (IKZF1) |
| --- | --- | --- | --- | --- | --- | --- | --- | --- | --- | --- |
| Cc1nc2cccc(N)c2c(=O)n1C1CCC(=O)NC1=O (stereo not drawn) [CC-122, reference compound] |  | ≤25% (≤25% for 0-25% of CK1α protein reduction) | ≤25% (≤25% for 0-25% of CK1α protein reduction) | ≤25% (≤25% for 0-25% of CK1α protein reduction) | lack of degradation | ≥75% (≥75% for 75-100% of IKZF1 protein reduction) | ≥75% (≥75% for 75-100% of IKZF1 protein reduction) | ≥75% (≥75% for 75-100% of IKZF3 protein reduction) | ≥75% (≥75% for 75-100% of IKZF3 protein reduction) |  |
| COc1sccc1C(=O)NC1CCC(=O)NC1=O (stereo not drawn) [Compound 20, N-(2,6-dioxopiperidin-3-yl)-2-methoxythiophene-3-carboxamide] | < 5 |  |  |  |  | ≤25% (≤25% for 0-25% of IKZF1 protein reduction) | ≤25% (≤25% for 0-25% of IKZF1 protein reduction) | ≤25% (≤25% for 0-25% of IKZF3 protein reduction) | ≤25% (≤25% for 0-25% of IKZF3 protein reduction) | ≤25% (≤25% for 0-25% of IKZF1 protein reduction) |
| COc1sccc1C(=O)N[C@H]1CCC(=O)NC1=O [Compound 21, (S)—N-(2,6-dioxopiperidin-3-yl)-2-methoxythiophene-3-carboxamide] | < 5 |  |  | >25% (>25% for 26-74% of CK1α protein reduction) |  |  |  |  |  | ≤25% (≤25% for 0-25% of IKZF1 protein reduction) |
| COc1sccc1C(=O)N[C@@H]1CCC(=O)NC1=O [Compound 22, (R)—N-(2,6-dioxopiperidin-3-yl)-2-methoxythiophene-3-carboxamide] | 10 to 50 |  |  | >25% (>25% for 26-74% of CK1α protein reduction) |  |  |  |  |  | ≤25% (≤25% for 0-25% of IKZF1 protein reduction) |
| COc1cscc1C(=O)NC1CCC(=O)NC1=O (stereo not drawn) [Compound 54, N-(2,6-dioxopiperidin-3-yl)-4-methoxythiophene-3-carboxamide] | < 5 | >25% (>25% for 26-74% of CK1α protein reduction) | >25% (>25% for 26-74% of CK1α protein reduction) | >25% (>25% for 26-74% of CK1α protein reduction) |  |  |  |  |  |  |
| O=C1CCC(NC(=O)c2csc(-c3ccccc3)c2)C(=O)N1 (stereo not drawn) [Compound 57, N-(2,6-dioxopiperidin-3-yl)-5-phenylthiophene-3-carboxamide] | < 5 |  |  |  |  |  |  |  |  | ≤25% (≤25% for 0-25% of IKZF1 protein reduction) |
| Nc1cccc2c1C(=O)N(C1CCC(=O)NC1=O)C2=O (stereo not drawn) [Pomalidomide, pomalidomide, reference compound] |  | >25% (>25% for 26-74% of CK1α protein reduction) | >25% (>25% for 26-74% of CK1α protein reduction) | >25% (>25% for 26-74% of CK1α protein reduction) | to a lesser degree | ≥75% (≥75% for 75-100% of IKZF1 protein reduction) | ≥75% (≥75% for 75-100% of IKZF1 protein reduction) | ≥75% (≥75% for 75-100% of IKZF3 protein reduction) | ≥75% (≥75% for 75-100% of IKZF3 protein reduction) | ≥75% (≥75% for 75-100% of IKZF1 protein reduction) |
